Data reported in patent publication US8796297B2, “4-substituted-2-amino-pyrimidine derivatives” (AbbVie Inc., priority 2009, dated 2014).
Where a name gives a salt, the structure may show the parent alone.

Key:
[1] = target: T1, human histamine H3 receptor (Homo sapiens (Human), UniProt Q9Y5N1); assay: Radioligand competition binding assay, human H3 receptor; conditions: [3H]-N-α-methylhistamine competition binding
[2] = target: human H3R (Homo sapiens (Human), UniProt Q9Y5N1); assay: GTPγS functional assay, membranes from HEK cells expressing the human H3R; format: biochemical; conditions: for Emax: 5 min, [35S]GTPγS bound as percentage of basal, read-out: Human Maximum (%); for EC50: GTPγS agonist potency
Chain of human H3R (Q9Y5N1 whole entry): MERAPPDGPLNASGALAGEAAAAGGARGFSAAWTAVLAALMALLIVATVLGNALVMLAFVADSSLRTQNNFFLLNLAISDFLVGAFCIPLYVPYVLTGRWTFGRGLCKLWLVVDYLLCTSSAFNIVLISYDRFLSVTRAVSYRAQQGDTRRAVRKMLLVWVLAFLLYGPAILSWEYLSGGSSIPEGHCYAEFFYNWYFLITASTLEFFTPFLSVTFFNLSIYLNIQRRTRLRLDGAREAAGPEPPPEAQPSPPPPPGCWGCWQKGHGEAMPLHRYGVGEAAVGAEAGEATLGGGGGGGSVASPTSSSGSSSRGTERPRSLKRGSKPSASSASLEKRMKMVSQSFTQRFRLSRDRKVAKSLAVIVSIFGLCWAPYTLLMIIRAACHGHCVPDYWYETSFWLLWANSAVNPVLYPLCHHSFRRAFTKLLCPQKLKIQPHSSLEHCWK
Method: (§1) Membranes from HEK cells expressing the human H3R, or from C6 cells expressing the rat H3R, were prepared by homogenization in cold buffer containing 50 mM Tris-HCl (pH 7.4), 5 mM EDTA, 10 mM MgCl2, 1 mM benzamidine, 2 μg/ml aprotinin, 1 μg/ml leupeptin, and 1 μg/ml pepstatin. The homogenate was centrifuged at 40,000 g for 20 min at 4° C., and the resulting pellet was resuspended in 50 mM Tris-HCl (pH 7.4), 5 mM EDTA, and 10 mM MgCl2 and homogenized. Glycerol and bovine serum albumin were added to a final concentration of 10% glycerol and 1% bovine serum albumin. Membranes were diluted in GTPγS assay buffer (25 mM HEPES, 2.5 mM MgCl2, and 75 mM NaCl, pH 7.4) and 10 μg of membrane protein was incubated in a 96-well deep-well block in the presence of 5.0 μM unlabeled GDP, approximately 0.5 nM of [^35S]GTPγS, and increasing concentrations of test compounds. Samples were incubated at 37° C. for 5 min and the assays were terminated by the addition of cold buffer (50 mM Tris-HCl, 75 mM NaCl, and 2.5 mM MgCl2, pH 7.6) and subsequent harvesting onto a Packard Unifilter 96-well GF/B plate followed by extensive washing. Microscint 20 (PerkinElmer Life Sciences) was added to the samples, and bound [^35S]GTPγS was determined using the Topcount (Perkin Elmer Life Sciences). The percentage of [^35S]GTPγS bound in each sample was calculated as a percentage of that bound to control samples incubated in the absence of the H3R agonists (basal). Data were analyzed from experiments performed in triplicate using GraphPad Prism to obtain pEC50 values, Hill slopes, and maximal % response.

[3] = target: rat H3R (Rattus norvegicus (Rat), UniProt Q9QYN8); assay: GTPγS functional assay, membranes from C6 cells expressing the rat H3R; format: biochemical; conditions: for Emax: 5 min, read-out: Rat Maximum (%); for EC50: GTPγS agonist potency
Chain of rat H3R (Q9QYN8 whole entry): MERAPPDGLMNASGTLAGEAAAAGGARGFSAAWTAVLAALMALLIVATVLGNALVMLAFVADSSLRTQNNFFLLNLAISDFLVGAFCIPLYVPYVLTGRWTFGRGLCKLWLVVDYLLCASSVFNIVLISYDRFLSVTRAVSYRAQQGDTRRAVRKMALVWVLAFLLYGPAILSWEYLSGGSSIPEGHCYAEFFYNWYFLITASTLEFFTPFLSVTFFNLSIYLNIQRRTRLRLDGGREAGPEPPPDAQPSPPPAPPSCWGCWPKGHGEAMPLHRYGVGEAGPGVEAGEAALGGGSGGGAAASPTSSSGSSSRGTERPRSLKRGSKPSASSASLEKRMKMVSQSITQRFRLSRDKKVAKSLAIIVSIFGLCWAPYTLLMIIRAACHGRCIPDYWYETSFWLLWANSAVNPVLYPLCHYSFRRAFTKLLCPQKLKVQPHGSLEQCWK
Method: as §1

[4] = target: T1, human histamine H3 receptor; assay: FLIPR functional assay (Ca2+, HEK-293 cells coexpressing Gαqi5), human H3 receptor; format: cell-based; conditions: for EC50: FLIPR agonist potency; for Emax: HEK293, FLIPR, percentage of the response to 1 μM RAMH, read-out: Human Maximum (%)
Source text: (§2) There are many methods available to show the effectiveness of compounds as histamine H3 receptor ligands. Histamine H3 receptors from mammalian species have been cloned. Methods to clone, express, and assess the potency and functional activity of such cloned genes are well known to those skilled in the art of molecular biology. […] In the present case, to determine the potency and effectiveness of representative compounds of this invention as histamine-H3 receptor ligands (H3 receptor ligands), the following tests were conducted according to previously described methods (see Esbenshade, et al., Journal of Pharmacology and Experimental Therapeutics 2003, 305, 887-896, Esbenshade, et al., Biochemical Pharmacology 2004, 68, 933-945, and in Krueger, et al., Journal of Pharmacology and Experimental Therapeutics 2005, 314, 271-281): histamine H3 receptors were cloned and stably expressed in HEK-293 (human embryonic kidney) cells coexpressing a Gαqi5. Before testing, cells were loaded with a Ca^+2 sensitive fluorescent dye, in this case Fluo-4. For partial agonist or full agonist ligands, addition of compound to the cells led to an increase in intracellular Ca^+2 which was detected by FLIPR (Fluorescence Imaging Plate Reader; Molecular Devices, Sunnyvale, Calif.) technology. The fluorescence intensities measured before addition of the test compound were subtracted from the fluorescence intensities at later time points. Peak response values determined at each concentration of ligand were expressed as a percentage of the response obtained with a maximal concentration (1 μM) of the full agonist R-α-methyl-histamine (RAMH). Concentration versus response data were analyzed to obtain compound potency as EC50 values for full and partial agonists.

[5] = target: T2, rat histamine H3 receptor (Rattus norvegicus (Rat), UniProt Q9QYN8); assay: Radioligand competition binding assay, rat H3 receptor; conditions: [3H]-N-α-methylhistamine competition binding
T2 sequence (Q9QYN8 whole entry): as above
Method: To determine the effectiveness of representative compounds of this invention as histamine-3 receptor ligands (H3 receptor ligands), the following tests were conducted according to previously described methods (see European Journal of Pharmacology 1990, 188, 219-227; Journal of Pharmacology and Experimental Therapeutics 1995, 275, 598-604; Journal of Pharmacology and Experimental Therapeutics 1996, 276, 1009-1015; and Biochemical Pharmacology 1973, 22, 3099-3108).
The rat H3 receptor was cloned and expressed in cells, and competition binding assays carried out, according to methods previously described (see Esbenshade, et al. Journal of Pharmacology and Experimental Therapeutics 2005, 313, 165-175; Esbenshade et al., Biochemical Pharmacology 2004, 68, 933-945; and Krueger, et al. Journal of Pharmacology and Experimental Therapeutics 2005, 314, 271-281). Membranes were prepared from C6 or HEK293 cells, expressing the rat histamine H3 receptor, by homogenization on ice in TE buffer (50 mM Tris-HCl buffer, pH 7.4, containing 5 mM EDTA), 1 mM benzamidine, 2 μg/ml aprotinin, 1 μg/ml leupeptin, and 1 μg/ml pepstatin. The homogenate was centrifuged at 40,000 g for 20 minutes at 4° C. This step was repeated, and the resulting pellet was resuspended in TE buffer. Aliquots were frozen at −70° C. until needed. On the day of assay, membranes were thawed and diluted with TE buffer.
Membrane preparations were incubated with [^3H]-N-α-methylhistamine (0.5-1.0 nM) in the presence or absence of increasing concentrations of ligands for H3 receptor competition binding. The binding incubations were conducted in a final volume of 0.5 ml TE buffer at 25° C. and were terminated after 30 minutes. Thioperamide (30 μM) was used to define non-specific binding. All binding reactions were terminated by filtration under vacuum onto polyethylenimine (0.3%) presoaked Unifilters (Perkin Elmer Life Sciences) or Whatman GF/B filters followed by three brief washes with 2 ml of ice-cold TE buffer. Bound radiolabel was determined by liquid scintillation counting. For all of the radioligand competition binding assays, IC50 values and Hill slopes were determined by Hill transformation of the data and pKi values were determined by the Cheng-Prusoff equation.

[6] = target: T2, rat histamine H3 receptor; assay: FLIPR functional assay (Ca2+, HEK-293 cells coexpressing Gαqi5), rat H3 receptor; format: cell-based; conditions: for EC50: FLIPR agonist potency; for Rat Maximum (%): FLIPR, percentage of the response to 1 μM RAMH
Source text: as §2

[7] = [35S]GTPγS bound as percentage of basal

T1 sequence (Q9Y5N1 whole entry): as the sequence (Q9Y5N1 whole entry) above

Row | Ki [1] | Emax [2] | EC50 [2] | Emax [3, 7] | EC50 [3] | EC50 [4] | Emax [4] | Ki [5] | EC50 [6] | Rat Maximum (%) [6] | SMILES | Rat Maximum (%) [3, 7]
1 | 53.7 nM | 160% | 525 nM | 183% | 339 nM | 85.1 nM | 77.7% | 20 nM |  |  | CN(C)CCNc1ccnc(N)n1 [Example 2, N^4-(2-(dimethylamino)ethyl)pyrimidine-2,4-diamine 2,2,2-trifluoroacetate] | 
2 | 257 nM |  |  |  |  |  |  | > 309 nM |  |  | CN(C)CCN(C)c1ccnc(N)n1 [Example 3, N^4-(2-(dimethylamino)ethyl)-N^4-methylpyrimidine-2,4-diamine dihydrochloride] | 
3 | 61.7 nM | 162% | 537 nM | 168% | 309 nM | 13.4 nM | 93% | 13.2 nM |  |  | NCCCNc1ccnc(N)n1 [Example 6, N^4-(3-aminopropyl)pyrimidine-2,4-diamine dihydrochloride] | 
4 | 28.2 nM |  |  |  |  |  |  | 81.3 nM |  |  | CNCCCNc1ccnc(N)n1 [Example 7, N^4-(3-(methylamino)propyl)pyrimidine-2,4-diamine dihydrochloride] | 
5 | 316 nM |  |  |  |  |  |  | 195 nM |  |  | CN(CCCN)c1ccnc(N)n1 [Example 8, N^4-(3-aminopropyl)-N^4-methylpyrimidine-2,4-diamine dihydrochloride] | 
6 | > 339 nM | 111% | 5750 nM |  |  |  |  | > 316 nM |  |  | CC(C)(CN)CNc1ccnc(N)n1 [Example 11, N^4-(3-amino-2,2-dimethylpropyl)pyrimidine-2,4-diamine] | 
7 | 72.4 nM | 139% | 871 nM | 136% | 324 nM |  |  | 24.5 nM |  |  | Nc1nccc(NC2CCN(Cc3ccccc3)CC2)n1 [Example 12, N^4-(1-benzylpiperidin-4-yl)pyrimidine-2,4-diamine 2,2,2-trifluoroacetate] | 
8 | > 380 nM |  |  |  |  | 316 nM | 67.6% | > 355 nM |  |  | CC(C)(C)OC(=O)N1CCN(c2ccnc(N)n2)CC1 [Example 14, tert-butyl 4-(2-aminopyrimidin-4-yl)piperazine-1-carboxylate] | 
9 | > 355 nM | 117% | 4790 nM | 138% | 7410 nM | 43.6 nM | 39% | > 331 nM |  |  | CC(C)(C)OC(=O)N1CCC(CNc2ccnc(N)n2)CC1 [Example 15, tert-butyl 4-((2-aminopyrimidin-4-ylamino)methyl)piperidine-1-carboxylate] | 
10 | > 363 nM |  |  | 130% | 2340 nM |  |  | > 339 nM | 4790 nM | 75.8% | CC(C)(C)OC(=O)N1CC[C@@H](Nc2ccnc(N)n2)C1 [Example 17, (R)-tert-butyl 3-(2-aminopyrimidin-4-ylamino)pyrrolidine-1-carboxylate] | 
11 | > 363 nM | 179% | 2510 nM | 162% | 1620 nM |  |  | 162 nM | 74 nM | 78.6% | Cl.Cl.Nc1nccc(N[C@@H]2CCNC2)n1 [Example 18, (R)—N^4-(pyrrolidin-3-yl)pyrimidine-2,4-diamine dihydrochloride] | 
12 | 162 nM | 120% | 115 nM | 135% | 214 nM |  |  | 55 nM |  |  | Nc1nccc(N2CCCN(Cc3ccccc3)CCC2)n1 [Example 21, 4-(5-benzyl-1,5-diazocan-1-yl)pyrimidin-2-amine] | 
13 | 33.1 nM | 216% | 457 nM | 156% | 676 nM |  |  | 97.7 nM |  |  | Nc1nccc(NC2CNC2)n1 [Example 22, N^4-(azetidin-3-yl)pyrimidine-2,4-diamine trihydrochloride] | 
14 | 324 nM |  |  |  |  |  |  | 105 nM |  |  | Nc1nccc(NC2CCNCC2)n1 [Example 24, N^4-(piperidin-4-yl)pyrimidine-2,4-diamine dihydrochloride] | 

Row | SMILES | Ki [1] | Emax [2] | EC50 [2] | Emax [3, 7] | EC50 [3] | EC50 [4] | Emax [4] | Ki [5] | EC50 [6] | Rat Maximum (%) [6] | Rat Maximum (%) [3, 7]
15 | CN(C)CCCN(C)c1ccnc(N)n1.O=C(O)C(O)C(O)C(=O)O [Example 9, N^4-(3-(dimethylamino)propyl)-N^4-methylpyrimidine-2,4-diamine(2R,3R)-2,3-dihydroxysuccinate] | 182 nM |  |  |  | 1950 nM |  |  | > 309 nM |  |  | 110%
16 | CN1CCN(c2ccnc(N)n2)CC1 [Example 13, 4-(4-methylpiperazin-1-yl)pyrimidin-2-amine] | 13.8 nM | 127% | 129 nM | 135% | 53.7 nM |  |  | 7.41 nM |  |  | 
17 | Nc1nccc(N2C[C@H]3CN(Cc4ccccc4)C[C@H]3C2)n1 [Example 19, 4-((3aR,6aS)-5-benzylhexahydropyrrolo[3,4-c]pyrrol-2(1H)-yl)pyrimidin-2-amine] | 158 nM |  |  | 116% | 447 nM | 2110 nM | 50.2% | 170 nM |  |  | 
18 | Nc1nccc(N2CCC3(CC2)CNC3)n1 [Example 23, 4-(2,7-diazaspiro[3.5]nonan-7-yl)pyrimidin-2-amine trihydrochloride] | 67.6 nM | 147% | 513 nM | 126% | 110 nM |  |  | 12.3 nM |  |  | 
19 | Nc1nccc(N2CCNCC2)n1 [Example 25, 4-(piperazin-1-yl)pyrimidin-2-amine dihydrochloride] | 24 nM | 150% | 132 nM | 141% | 30.2 nM |  |  | 5.75 nM |  |  | 
20 | C[C@@H](N)Cc1c[nH]cn1 [R-α-methyl-histamine (RAMH), R-α-methyl-histamine, reference compound] |  | 240% |  | 224% |  |  |  |  |  |  | 
